Test results reported in patent publication US11730746B2, “17beta-heterocyclyl-digitalis like compounds for the treatment of heart failure” (priority 2018, dated 2023).
Marks after values point to notes of the source that are not given here.

How the values were obtained:
[1] = biological target: T1, SERCA2a (Canis lupus familiaris, UniProt O46674); experiment: SERCA2a ATPase activity in heart-derived SR microsomes from normal dog; format: biochemical; conditions: for Vmax (SERCA2a ATPase activity): mean ± SD
T1 construct: pre-incubated with 2 μg of microsomes; from tissue; host or cells: dog heart left ventricle, SR microsomes
T1 sequence (O46674 whole entry): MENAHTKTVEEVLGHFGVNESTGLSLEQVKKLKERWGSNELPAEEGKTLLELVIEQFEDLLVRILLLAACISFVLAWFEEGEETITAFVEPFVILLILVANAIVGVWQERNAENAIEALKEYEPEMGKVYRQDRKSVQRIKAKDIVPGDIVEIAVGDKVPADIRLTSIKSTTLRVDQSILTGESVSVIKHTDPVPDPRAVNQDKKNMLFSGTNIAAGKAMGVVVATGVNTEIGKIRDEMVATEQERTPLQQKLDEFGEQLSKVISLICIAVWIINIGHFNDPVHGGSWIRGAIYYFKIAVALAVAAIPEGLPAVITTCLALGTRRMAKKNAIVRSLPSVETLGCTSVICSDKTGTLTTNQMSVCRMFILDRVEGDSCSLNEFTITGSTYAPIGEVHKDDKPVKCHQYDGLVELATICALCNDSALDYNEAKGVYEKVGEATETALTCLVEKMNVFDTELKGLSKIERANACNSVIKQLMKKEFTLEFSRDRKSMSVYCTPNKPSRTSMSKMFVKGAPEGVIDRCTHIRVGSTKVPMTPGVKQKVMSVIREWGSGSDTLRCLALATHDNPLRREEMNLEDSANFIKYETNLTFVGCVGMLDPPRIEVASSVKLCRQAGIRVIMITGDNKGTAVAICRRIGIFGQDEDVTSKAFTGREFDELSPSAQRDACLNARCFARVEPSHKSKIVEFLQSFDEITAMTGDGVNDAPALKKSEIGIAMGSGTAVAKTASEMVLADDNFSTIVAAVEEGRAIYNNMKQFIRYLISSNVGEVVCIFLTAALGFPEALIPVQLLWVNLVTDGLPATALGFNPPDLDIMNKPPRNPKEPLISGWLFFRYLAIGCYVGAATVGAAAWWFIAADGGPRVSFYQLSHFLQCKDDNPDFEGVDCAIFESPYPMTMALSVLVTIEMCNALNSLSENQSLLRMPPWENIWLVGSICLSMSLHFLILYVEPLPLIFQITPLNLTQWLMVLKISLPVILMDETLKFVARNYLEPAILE
Protocol: Left ventricle tissues were dissected, homogenized in 4 volumes of 10 mM NaHCO3, pH 7, 1 mM PMSF, 10 μg/ml Aprotinin and Leupeptin and centrifuged at 12,000 g for 15 minutes, as published (Nediani C. et al. J Biol Chem. 1996; 271:19066-73). Supernatants were filtered and centrifuged at 100,000 g for 30 min. Contractile proteins were extracted by suspending the pellets with 0.6 M KCl, 30 mM Histidine, pH 7 and further centrifugation at 100,000 g for 30 min. Final pellets were reconstituted with 0.3 M Sucrose, 30 mM Histidine, pH 7.
SERCA2a activity was measured “in vitro” as ^32P-ATP hydrolysis at different Ca^2+ concentrations (100-4000 nM) in the absence and presence of the tested compounds, as described (Micheletti R. et al. Am J Card 2007; 99:24A-32A). Increasing concentrations of each compound (from 1 to 100 nM) were pre-incubated with 2 μg of microsomes for 5 min at 4° C. in 80 μl of a solution containing 100 mM KCl, 5 mM MgCl2, 1 μM A23187, 20 mM Tris, pH 7.5. Then, 20 μl of 5 mM Tris-ATP containing 50 nCi of ^32P-ATP (3-10 Ci/mmol, Perkin Elmer) were added. The ATP hydrolysis was continued for 15 min at 37° C. and the reaction was stopped by acidification with 100 μl of 20% v/v ice-cold perchloric acid. ^32P was separated by centrifugation with activated charcoal (Norit A, SERVA) and the radioactivity was measured. SERCA2a-dependent activity was identified as the portion of total hydrolytic activity inhibited by 10 μM cyclopiazonic acid (Seidler N W. et al. J Biol Chem. 1989; 264:17816-23).
Dose-response curves were fitted by using a sigmoidal curve fitting software and the maximal velocity (Vmax) activity and the Kd Ca^2+ were calculated (Synergy Software KaleidaGraph 3.6).

[2] = test system: guinea pig; experiment: Haemodynamics: inotropic and lethal dose in guinea pig; format: in vivo
Protocol: Guinea-pigs (400-450 g) were anaesthetized with urethane (1.5 g/kg ip). A microtip pressure transducer was introduced into the left ventricle through the right carotid artery to measure ventricular pressure (LVP); the transducer was coupled with a transducer amplifier. Recordings were fed to a polygraph and analyzed. A polythene cannula was inserted into a jugular vein for drug infusion. After a stabilization period, the test substance was injected at the rate of 0.16 ml/min for 90 min (Micheletti R et al. J Pharmacol Exp Ther 2002; 303:592-600).
The following parameters were obtained: heart rate (HR), left ventricular pressure (LVP), maximal velocity of pressure rise (+dP/dtmax) and decay (−dP/dtmax), ECG. For inotropy, the time elapsed until +dP/dtmax increased by 80% was identified in order to determine the ED80 (dose increasing basal +dP/dtmax by 80%). The time to the maximum increase in +dP/dtmax was also identified to determine the maximum effective dose, EDmax. Lusitropy was characterized by the dose inducing the maximum decrease in −dP/dtmax, (EDmax). As indexes of toxicity, the dose administered until the onset of arrhythmias and the dose inducing death (LD) were calculated. The safety ratio for the tested compound was also calculated as the ratio between LD and ED80.

[3] = test system: guinea pig isolated cardiomyocytes; experiment: SR Ca2+ uptake function (loading protocol) in isolated ventricular cardiomyocytes; format: cell-based; conditions: 100 nM
Protocol: The compounds were characterized for their effect on (i) SR Ca^2+ uptake function, (ii) action potential (AP) in myocytes freshly dissociated from guinea-pig ventricles by retrograde coronary perfusion with enzymatic solution (Rocchetti M et al. J Pharmacol Exper Therap 2005; 313(1):207-215).
Drug effects on SR Ca^2+ uptake rate were evaluated with an SR “loading protocol” specifically devised to rule out the contribution of the Na/Ca exchanger (NCX) and to assess the uptake rate starting at low levels of SR Ca^2+ loading. Under voltage-clamp conditions, intracellular Ca^2+ concentration was dynamically measured by epifluorescence (Fluo4-AM). Membrane current, whose time-dependent component mainly reflected ICaL, was simultaneously recorded. The SR loading protocol consisted in emptying the SR (by a brief caffeine pulse) and then progressively refilling it by voltage steps activating Ca^2+ influx through the sarcolemmal Ca^2+ channel (ICaL). NCX was blocked by omission of Na^+ from intracellular and extracellular solutions. The procedure is in agreement with published methods, with minor modifications (Rocchetti M et al. J Pharmacol Exper Therap 2005; 313(1):207-215).
Drug effects on SR Ca^2+ uptake were analysed by considering multiple parameters: 1) the rate at which Ca^2+ transient (CaT) amplitude increased during the loading protocol, which reflects the rate at which the SR refilled and 2) the time constant of cytosolic Ca^2+ decay (Tdecay) within each pulse, reflecting net Ca^2+ transport rate (by SERCA2a) across the SR membrane (a decrease in Tdecay corresponds to enhanced SR Ca^2+ uptake).

[4] = biological target: T2, dog renal Na,K-ATPase (Canis lupus familiaris, UniProt P50997); experiment: Inhibition of dog renal Na,K-ATPase activity (32P-ATP release); format: biochemical
T2 construct: incubated with 0.3 μg of purified dog kidney enzyme; from tissue; host or cells: dog kidney outer medulla
Protocol: Kidneys were sliced and the outer medulla was dissected, pooled and suspended (1 g/10 ml) in a sucrose-histidine solution, containing 250 mM sucrose, 30 mM histidine and 5 mM EDTA, pH 7.2 and homogenized. […] The pellet was suspended in the sucrose-histidine buffer and incubated for 20 min with a sodium-dodecyl-sulphate (SDS) solution dissolved in a gradient buffer, containing 25 mM imidazole and 1 mM EDTA, pH 7.5. […] The pellet was suspended in the gradient buffer.
Increasing concentrations of the standard ouabain, or tested compound, were incubated with 0.3 μg of purified dog kidney enzyme for 10 min at 37° C. in 120 μl final volume of a medium, containing 140 mM NaCl, 3 mM MgCl2, 50 mM Hepes-Tris, 3 mM ATP, pH 7.5. […] The inhibitory activity was expressed as percent of the control samples carried out in the absence of ouabain or tested compound.

[5] = test system: STZ diabetic rats; experiment: Haemodynamics in streptozotocin diabetic rats (echocardiography); format: in vivo, rat; conditions: 20 mg/kg os, after treatment, mean ± SD, n = 12
Protocol: Sprague Dawley male rats (150-175 g) were made diabetic by a single injection into the tail vein of a solution of streptozotocin (STZ, 50 mg/kg, Sigma-Aldrich), freshly prepared in 0.1 M sodium citrate buffer, pH 4.5. Control rats received citrate buffer. Fasting glycaemia was measured after 1 week and rats with values >400 mg/dl were considered diabetic.
Eight-nine weeks after STZ injection, rats were submitted to transthoracic echocardiographic and Doppler evaluation performed under pentobarbital anesthesia. Two-dimensionally guided M-mode recordings were used to obtain short-axis measurements of left ventricular end-diastolic diameter (LVEDD), left ventricular end-systolic diameter (LVESD), posterior (PW) and septal (SW) diastolic wall thickness according to the American Society of Echocardiography guidelines (Lang R M et al. Eur J Echocardiography 2006; 7:79-108). Fractional shortening was calculated as FS=(LVEDD-LVESD)/LVEDD. Relative wall thickness was calculated as PWTd+IVSTd/LVEDD.
Mitral inflow was measured by pulsed Doppler at the tips of mitral leaflets from an apical 4-chamber view to obtain early and late filling velocities (E, A) and deceleration time of early filling velocity (DT). The deceleration slope was calculated as E/DT ratio. The mitral deceleration index was calculated as DT/E ratio.
Tissue Doppler Imaging (TDI) was evaluated from the apical 4-chamber view to record septal mitral annular movements, i.e., peak myocardial systolic (s′) and early and late diastolic velocity (e′ and a′).
Compound CVie 101 was orally administered to STZ injected rats at the dose of 20 mg/kg and echocardiographic parameters were measured after 1 h.

[6] = test system: mouse (Albino Swiss CD-1); conditions: i.v., data from literature; cited from earlier work
[7] = literature (Packer 2016, 2018); cited from earlier work
[8] = biological target: T1, SERCA2a; conditions: literature (Rocchetti 2005; Ferrandi 2013); cited from earlier work

C[C@]12CC[C@H](O)C[C@H]1CCC1C2CC[C@]2(C)[C@@H](c3csc(N=C(N)N)n3)CC[C@]12O (stereo partly drawn) [CVie 102, 3β-hydroxy-5β-10β-methyl-13β-methyl-14β-hydroxy-17β-(2-guanidino-thiazol-4-yl)androstane]
% increase vs Control (SERCA2a Vmax) ([1]; compound 1 nM): 25%* | Vmax (SERCA2a ATPase activity) ([1]; compound 1 nM): 2.949 ± 0.321 (n = 6) μmol/min/mg prot | % increase vs Control (SERCA2a Vmax) ([1]; compound 10 nM): 13%* | Vmax (SERCA2a ATPase activity) ([1]; compound 10 nM): 2.660 ± 0.232 (n = 12) μmol/min/mg prot | Dead/treated number ([2]; i.v. infusion 0.3 mg/kg/min): 11/11 | ED80 ([2]; i.v. infusion 0.3 mg/kg/min): 3.8 mg/kg | Lethal dose ([2]; i.v. infusion 0.3 mg/kg/min): 12.57 mg/kg | E max % increase in dP/dtmax ([2]; i.v. infusion 0.3 mg/kg/min, 90 min): 138.3% | ED max ([2]; i.v. infusion 0.3 mg/kg/min, cumulative dose): 8.6 mg/kg | LD/ED80 ([2]; i.v. infusion 0.3 mg/kg/min, safety ratio): 5.42 | rate of Ca2+ transient (CaT) increment during SR reloading ([3]; FIG. 1A, 1C): increased | time constant of cytosolic Ca2+ decay within each pulse (τdecay) ([3]; FIG. 1B, 1D): reduced | IC50 [4]: 1.7 µM

C[C@H]1O[C@@H](O[C@H]2[C@@H](O)C[C@H](O[C@H]3[C@@H](O)C[C@H](O[C@H]4CC[C@@]5(C)[C@H](CC[C@@H]6[C@@H]5C[C@@H](O)[C@]5(C)[C@@H](C7=CC(=O)OC7)CC[C@]65O)C4)O[C@@H]3C)O[C@@H]2C)C[C@H](O)[C@@H]1O [Digoxin, reference compound]
A (late filling velocity of mitral inflow) [5]: 0.92 ± 0.1 m/s | A′ (TDI late relaxation velocity) [5]: 35.8 ± 5 cm/s | CO (cardiac output) [5]: 246.8 ± 72 mL/min | DT (deceleration time of E wave) [5]: 39.2 ± 9.34 ms | E (early filling velocity of mitral inflow) [5]: 1.02 ± 0.13 m/s | E/DT (deceleration slope) [5]: 27.9 ± 9.8 m/s2 | E′ (TDI early relaxation velocity) [5]: 23.7 ± 1.35 cm/s | FS (fractional shortening) [5]: 47.2 ± 3.24 % | HR (heart rate) [5]: 308 ± 39 beat/min | SV (stroke volume) [5]: 0.80 ± 0.19 ml/beat | S′ (TDI contraction velocity) [5]: 26.7 ± 2.77 cm/s | LD50 [6]: 7.7 mg/kg | serum concentration ranges at which digoxin displays its beneficial effects [7]: 0.5 to 0.7 ng/mL | serum threshold level above which increased risk of death, mainly due to arrhythmias, has been observed [7]: 0.9 ng/mL | SERCA2a activity [8]: failed to stimulate | ED80 ([2]; guinea pig, in vivo): 0.69 mg/kg | Lethal dose ([2]; i.v. infusion […]): 1.20 mg/kg | IC50 [4]: 0.3 µM
